Literature values in patent US20080004223A1, “DERMATOLOGICAL USES OF THE TRIPEPTIDE MELANOCYTE STIMULATING INHIBITORY FACTOR (MIF)” (priority 2006, published 2008).
Like-named read-outs stand apart in the source and are kept apart here. Residues, ends and D or L forms follow the SMILES beside them. No end group written: not given here.

Experiments:
[1] = rats; Petersson et al. 2004
[2] = water wheel test; Kastin et al. 1984
[3] = mice, modified Dopa test; U.S. Pat. No. 3,708,593
[4] = U.S. Pat. No. 4,278,595
[5] = rats; Pahdy et al. 2005
[6] = rats; Petersson et al. 2001
[7] = rats; Kastin et al. 1985
[8] = rats; Hayashi et al. 1983, 1984

Row | Molecule | oxytocin levels [1] | antidepressant activity [2] | antidepressant activity [3] | metabolism subsequent to administration [4] | latex-induced inflammatory hyperalgesia [5] | carrageenan induced inflammation [6] | inhibition of the analgesic effect of morphine [7] | effect on passive avoidance [8]
1 | CC(C)C[C@H](NC(=O)[C@@H]1CCCN1)C(=O)NCC(N)=O [MIF, prolyl-leucyl-glycinamide] (H-Pro-Leu-Gly-NH2) | decreases oxytocin levels | active as antidepressants | exhibits antidepressant activity | rapidly metabolized |  |  |  | 
2 | CC[C@H](C)[C@@H]1NC(=O)[C@H](Cc2ccc(O)cc2)NC(=O)[C@@H](N)CSSC[C@@H](C(=O)N2CCC[C@H]2C(=O)N[C@@H](CC(C)C)C(=O)NCC(N)=O)NC(=O)[C@H](CC(N)=O)NC(=O)[C@H](CCC(N)=O)NC1=O [oxytocin] |  |  |  |  | inhibit Calotropis procera latex-induced inflammatory hyperalgesia | decreases carrageenan induced inflammation |  | 
3 | Tyr-Pro-Leu-Gly-NH2 (YPLG-NH2) [Tyr-MIF-1, brain derived peptide] |  | active as antidepressants |  |  |  |  | active in inhibiting the analgesic effect of morphine | shown to affect passive avoidance
